{
  "source": "patent US20140221472A1",
  "about": "“USE OF MYRICETIN OR DERIVATIVES THEREOF AS A CATHEPSIN K INHIBITOR” (JILINSHENG JINZIYUAN BIOTECHNOLOGY LTD, priority 2013, published 2014)",
  "key": {"[1]": {"conditions": "left in air; becomes green; cited from earlier work"}, "cathepsin K [2]": {"target": "T1, cathepsin K (Homo sapiens, UniProt P43235)", "T1 sequence (P43235 115-329)": "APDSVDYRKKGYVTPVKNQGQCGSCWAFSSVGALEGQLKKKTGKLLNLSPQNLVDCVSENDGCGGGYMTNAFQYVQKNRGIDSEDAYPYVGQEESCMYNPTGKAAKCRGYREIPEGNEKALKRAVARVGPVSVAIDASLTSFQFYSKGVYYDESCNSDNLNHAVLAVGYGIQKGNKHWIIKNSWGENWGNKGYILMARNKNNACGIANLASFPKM", "assay": "Cathepsin K activity with fluorogenic substrate HD-Ala-Leu-Lys-AMC", "format": "biochemical", "set-up": "made in house", "conditions": "100,200,500,1000 uM; fluorescence 390/460 nm; effect enhanced as concentration increased", "protocol": "Using a Fluoroskan Ascent, recombinant cathepsin K inhibition ratios with different concentration of myricetin were calculated after completion of the reaction and the IC50 value was determined.\nIn order to determine the inhibitory effect of myricetin on cathepsin K activity, a cathepsin. K specific fluorogenic substrate HD-Ala-Leu-Lys-AMC (Cat. No. 104881-72-3, purchased from GL Biochem (Shanghai) Co., Ltd.) was used and Cary Eclipse fluorescence spectrophotometer (Agilent Technologies Inc., Beijing) for quantitative analysis was applied. 1 ug of cathepsin K-specific fluorogenic substrate HD-ALK-AMC, 1 ug cathepsin K, myricetin compounds dissolved in 20% ethanol with final concentrations of 100,200,500,1000 uM were added into 50 mM of phosphate buffer. An additional 50 mM of phosphate buffer (pH6.0) was added to bring a total volume of 500 uL. And the reaction sample was inhibited at 37° C. for 15 hours in a water bath. As a positive control without any candidate compound, 1 ug of cathepsin K specific fluorogenic substrate HD-ALK-AMC and 1 ug of cathepsin K, and 50 mmol phosphate buffer solution (pH6.0) were added to bring a total volume of 500 uL. […] After completion of the reaction, the samples were measured at 390 nm excitation wavelength and 460 nm emission wavelength for fluorescence intensity changes assay, and the value of cathepsin K activity was calculated."}, "BALB/C mice": {"test_system": "BALB/C mice", "assay": "Maximum tolerated dose acute toxicity test", "format": "in vivo", "conditions": "100 g/kg body weight, single gavage, observed 2 weeks", "text": "BALB/C mice were bred by Harbin Veterinary Research Institute of Experimental Animal Center, Chinese Academy of Agricultural Sciences, and the animal quality permit number is Heilongjiang-SYXK 2006-032. The selection conditions are age at 9 weeks to 10 weeks, weighing about 20 g, half male and half female.\nThe animal laboratory had regular air ventilation, good lighting, and constant laboratory room temperature. There were five mice per cage, and they were fed with extruded feed produced specifically for mice, with free access to drinking water.\nFirstly, the acute toxicity tests were conducted on to evaluate the safety of myricetin in order to provide the basis for the therapeuticapplication of myricetin. In this study, the maximum tolerated dose acute toxicity test was used. Twenty of BALB/C mice with the healthy body weight about 20 g, half male and half femalewere selected, The clinical intended route of administration is oral, so this experiment used intragastric administration. Myricetin (purchased from Shanghai Chemical Co., Ltd. Item No. A0145, Myricetin; 3,5,7,3,4′,5′-hexahydroxyflavone, CAS No: 529-44-2. Pure and natural extracts, purity ismore than 98.5% confirmed by NMR and HPLC purity analysis) was modulated into a stick-like with distilled water. Dosed at […] body weight, gavage was conducted to the mice (about 200 mg myricetin per mouse). […]"}, "cathepsin K [3]": {"target": "T1, cathepsin K", "assay": "Cathepsin K induced collagen degradation, SDS-PAGE screening", "format": "biochemical", "set-up": "made in house; host or cells: yeast cells (the cited Linnevers et al. method uses Pichia pastoris)", "conditions": "100 uM myricetin, collagen type I/II substrate, pH 6.0, 37° C., 15 hours", "text": "A series of Chinese herbal medicine of monomer myricetin were purchased from Shanghai Jingke Chemical Co., Ltd.,(Cat. No. A0145, 3,5,7,3′, 4′, 5′-hexahydroxyflavone, CAS No: 529-44-2). It was purified from natural plant (the purity is more than 98.5% confirmed by NMR and HPLC purity assay) and was used as an inhibitor candidate compound. Meanwhile, collagen type I (Cat No. SU2087) and collagen type II (Cat No. SU2088) were purchased from SIGMA and were used as a substrate for cathepsin K. For screening experiments, […] and 1 ug cathepsin K were added into 50 mM phosphate buffer (pH6.0), then myricetin compounds dissolved in 20% ethanol were added with the final concentrations of 100,200,500,1000 uM, respectively, finally an additional 50 mM of phosphate buffer (pH 6.0) was added again to bring a total volume of 500 uL. The reactions were incubated at 37° C. for 15 hours in a water bath. As a positive control without any candidate compound, 100 ug collagen, […], and 50 mM phosphate buffer solution (pH6.0) were added to bring a total volume of 500 uL. […] After completion of the reactions, the reaction samples were applied to 10% SDS-PAGE gel electrophoresis, coomassie blue staining and destaining, and the intensity of the stained protein bands were analyzed. […]"}, "[4]": {"test_system": "type II collagen-induced arthritis mice", "assay": "Bovine type II collagen-induced arthritis in mice", "format": "in vivo", "protocol": "Firstly, same strains and sources of animals as shown in Example 2 were selected, and total 105 of 9-week-old BALB / C mice were fed under the same conditions. There were 70 mice that each had subcutaneous injection of 200 ug of Freund's adjuvant emulsified bovine type II collagen. 15 days after the first immunization, subcutaneous injection was applied again at 200 ug per mouse with incomplete Freund's adjuvant emulsified bovine type H collagen to strengthen the immunity. After 24 days of the first injection, the 70 mice were divided into two groups, of which 35 mice were treated with myricetin intake orally 25 mg/kg body weight daily as a treated-group, while the other 35 were the model control group fed normally without myricetin. The remaining 35 mice were the normal control group without immunization and fed with normal food, used as a blank control.\nThroughout the testing period, arthritis conditions of the mice and arthritic conditions after the treatment were observed. After immunization with type II collagen on mice, the conventional methods were used by measuring the degree of paw swelling (thickness) (see FIG. 3) and weight change (see FIG. 4), and myricetin therapeutic effects were monitored and evaluated throughout the procedure (0.5 mm increased thickness for one magnitude) (see FIG. 5).\nOn the 48 day, the blood from the heart was extracted, and the serum was separated, meanwhile all mice were killed. The mouse urinary deoxypyridinoline (urinary deoxypyridinoline) (see FIG. 6), type I collagen C telopeptide (CTX-I) (see FIG. 7) and serum cartilage oligomeric matrix protein (COMP) were examined, and histological treatment evaluation were conducted (see FIG. 8).\nThe mouse urinary deoxypyridinolineideoxypyridinoline kit (DPD kit from Shanghai Huyu Biotech Co., Ltd., No. HY-E3170B) was used. According to the instructions provided, iMark-BIO-RAD microplate reader (U.S. BIO-RAD) was used to detect the concentration of mouse urinary deoxypyridinoline at 450 wavelength (see FIG. 6).\nRat C-terminal peptide of type I collagen (CTX-I) ELISA Kit from Shanghai Jima Biotech Co., Ltd., NO Wk30026) was used. According to the method provided by the kit instruction, the change in the content of type I collagen C-terminal peptide in mice serum was detected to evaluate the effect that myricetin prevented type I collagen degradation by suppressing cathepsin K (see FIG. 7).\nThe cartilage oligomeric matrix protein ELISA kit (from Shanghai Yihan Biotech Co., Ltd., No. SU10580) was used.\nAfter killing of the mice, the paws were fixed with 4% formaldehyde for 24 hours, then decalcificated using 500 mmol of EDTA […]. The paraffin sections were prepared using the conventional method and stained with hematoxylin / eosin staining method. […] The synovial surface almost disappeared with a rough surface in a grid pattern, and there were a large number of macrophages. […] It can be concluded that by myricetin therapeutic administration, the mice arthritis is mostly recovered (see FIG. 9).\nBased on mice joint tissue sections, according to methods from Larsson et. al. (Rheumatology (Oxford), 2004, 43 (4),428-434),the therapeutic effect of myricetin on rheumatoid arthritis in mice was evaluated, as well as the degree of arthritis. Main evaluation were based on: (1) the size of the joint cavity, inflammatory cell infiltration, cartilage damage and fibrin deposition. From three individual evaluations, it was divided into three levels, which are 0 for normal, level 1 for the light degree of arthritis, level 2 for the moderate arthritis and level 3 for severe arthritis (see FIGS. 3 and 5). (2) The weight change (see FIG. 4). (3) histology examination (see FIG. 9) and evaluation (see FIGS. 10 and 11)."}, "[5]": {"conditions": "cited from earlier work"}},
  "data": [
    {"smiles": "O=c1c(O)c(-c2cc(O)c(O)c(O)c2)oc2cc(O)cc(O)c12", "note": "[myricetin, 3,5,7-Trihydroxy-2-(3,4,5-trihydroxyphenyl)-4H-1-benzopyran-4-one]", "values": [
      {"measurement": "stability to oxidation", "setting": "[1]", "value": "easily oxidized"},
      {"measurement": "inhibitory effect on cathepsin K activity", "setting": "cathepsin K [2]", "value": "significant inhibitory effect"},
      {"measurement": "symptoms of poisoning and death", "setting": "BALB/C mice", "value": "free of any symptoms of poisoning"},
      {"measurement": "inhibition of the cathepsin K activity (collagen degradation)", "setting": "cathepsin K [3]", "value": "complete inhibition"},
      {"measurement": "arthritis symptoms (paw swelling, clinical score)", "setting": "[4]; 25 mg/kg daily orally from day 24 to 48, vs immunized mice", "value": "significantly improved"},
      {"measurement": "degree of arthritis", "setting": "[4]; 25 mg/kg p.o., compared with the model group, P<0.05", "value": "significantly reduced"},
      {"measurement": "concentration of urinary deoxypyridinoline", "setting": "[4]; 25 mg/kg p.o., day 48, ELISA, vs control group, P<0.001", "value": "significantly lower"},
      {"measurement": "content of type I collagen C-terminal peptide in mice serum", "setting": "[4]; 25 mg/kg p.o., day 48, ELISA, vs model control group, P<0.001", "value": "significantly lower"},
      {"measurement": "content of cartilage oligomeric matrix protein in mice serum", "setting": "[4]; 25 mg/kg p.o., day 48, ELISA, vs model control group, P<0.005", "value": "significantly lower"},
      {"measurement": "synovial surface pathological changes (histology)", "setting": "[4]; 25 mg/kg p.o., day 48, hematoxylin/eosin paw sections", "value": "significantly reduced pathological changes"},
      {"measurement": "focal hyperplasia of the synovial lining cells", "setting": "[4]; end of study, ankle joint sections, hematoxylin and eosin, FIG. 9", "value": "undetectable"},
      {"measurement": "hind leg swelling and redness with ankle joint thickening", "setting": "[4]; end of study, representative photographs, FIG. 9", "value": "attenuated"},
      {"measurement": "solubility in chloroform and petroleum", "setting": "[5]; chloroform and petroleum", "value": "insoluble"},
      {"measurement": "solubility in methanol, ethanol, aceton, ethyl acetate", "setting": "[5]; methanol, ethanol, aceton, ethyl acetate", "value": "soluble"},
      {"measurement": "solubility in water", "setting": "[5]; water", "value": "slightly soluble"}
    ]}
  ]
}
